What was measured:
Format in all cases: cell-based
Pseudomonas aeruginosa = assay: MIC, test tube serial dilution, Pseudomonas aeruginosa
Klebsiella-Aerobacter = assay: MIC, test tube serial dilution, Klebsiella-Aerobacter
Escherichia coli = assay: MIC, test tube serial dilution, Escherichia coli
Proteus morganii = assay: MIC, test tube serial dilution, Proteus morganii
Proteus vulgaris = assay: MIC, test tube serial dilution, Proteus vulgaris
Streptococcus faecalis = assay: MIC, test tube serial dilution, Streptococcus faecalis
Staphylococcus aureus = assay: MIC, test tube serial dilution, Staphylococcus aureus
[1] = strain 1756 (BRL 1 756), 24 hours, 37°C

| SMILES | MIC (Pseudomonas aeruginosa; strain Bonn, 24 hours, 37°C) [U/ml] | MIC (Pseudomonas aeruginosa; strain Walter, 24 hours, 37°C) [U/ml] | MIC (Klebsiella-Aerobacter; strain 63, 24 hours, 37°C) [U/ml] | MIC (Klebsiella-Aerobacter; strain K 10, 24 hours, 37°C) [U/ml] | MIC (Escherichia coli; strain 183/58, 24 hours, 37°C) [U/ml] | MIC (Escherichia coli; strain A 261, 24 hours, 37°C) [U/ml] | MIC (Proteus morganii; unit assumed) [µg/mL] | MIC (Proteus vulgaris; unit assumed) [µg/mL] | MIC (Streptococcus faecalis; ATCC 9790, 24 hours, 37°C) [U/ml] | MIC (Staphylococcus aureus; [1]) [U/ml] | MIC (Pseudomonas aeruginosa; in µg/mL (unit assumed)) | MIC (Klebsiella-Aerobacter; in µg/mL (unit assumed)) | MIC (Streptococcus faecalis; unit assumed) [µg/mL] | other results |
| --- | --- | --- | --- | --- | --- | --- | --- | --- | --- | --- | --- | --- | --- | --- |
| CC(=O)N1CCN(C(=O)N[C@@H](C(=O)N[C@@H]2C(=O)N3[C@@H]2SC(C)(C)[C@@H]3C(=O)O)c2ccccc2)C1=O [Example 1, Sodium D(-)-α-[(3-acetyl-imidazolidin-2-on-1-yl)-carbonylamino]-benzylpenicillin] | 25 | 50 | 25 | 100 | 3 | 400 | 6 | 6 | 25 | 400 |  |  |  |  |
| CC(=O)N1CCN(C(=O)NC(C(=O)N[C@@H]2C(=O)N3[C@@H]2SC(C)(C)[C@@H]3C(=O)O)c2cccs2)C1=O (stereo partly drawn) [Penicillin No. 9 (Table 3)] |  |  |  |  |  |  |  |  |  |  |  |  |  | MIC (Pseudomonas aeruginosa; Table 3, strain F 41): 64 U/ml; MIC (Pseudomonas aeruginosa; Table 3, strain Walter): 64 U/ml; MIC (Klebsiella-Aerobacter; Table 3, strain 63): 128 U/ml; MIC (Klebsiella-Aerobacter; Table 3, strain K 10): 32 U/ml; MIC (Escherichia coli; Table 3, strain 14): 2 U/ml; MIC (Escherichia coli; Table 3, strain 183/58): 8 U/ml; MIC (Escherichia coli; Table 3, strain A 261): 512 U/ml; MIC (Escherichia coli; Table 3, strain C 165): 8 U/ml; MIC (Proteus morganii; Table 3, strain 932): 8 U/ml; MIC (Proteus vulgaris; Table 3, strain 1017): 8 U/ml; MIC (Streptococcus faecalis; Table 3, ATCC 9790): 64 U/ml; MIC (Staphylococcus aureus; Table 3, strain 133): 2 U/ml; MIC (Staphylococcus aureus; Table 3, strain 1756E): 64 U/ml |
| CCOC(=O)NS(=O)(=O)N1CCN(C(=O)N[C@@H](C(=O)N[C@@H]2C(=O)N3[C@@H]2SC(C)(C)[C@@H]3C(=O)O)c2ccccc2)C1=O [Example 22, Sodium D(-)-α-{[3-(ethoxy-carbonyl-amino-sulphonyl)imidazolidin-2-on-1-yl]-carbonylamino}-benzylpenicillin] | 16 |  | 64 |  | 8 | > 256 | 128 |  |  | 128 | 32 | 32 | 32 | MIC (Proteus vulgaris; strain 1017, 24 hours, 37°C): 16 U/ml |
| COC(=O)N1CCN(C(=O)N[C@@H](C(=O)N[C@@H]2C(=O)N3[C@@H]2SC(C)(C)[C@@H]3C(=O)O)c2ccccc2)C1=O [Example 3, Sodium D(-)-α-[(3-methoxycarbonyl-imidazolidin-2-on-1-yl)-carbonylamino]-benzylpenicillin] | 16 | 16 | 16 | 16 | 4 |  | 8 | 8 | 64 | > 256 |  |  |  |  |
| CC1(C)S[C@@H]2[C@H](NC(=O)[C@H](NC(=O)N3CCN(C(=O)N4CCCCC4)C3=O)c3ccccc3)C(=O)N2[C@H]1C(=O)O [Example 9, Sodium D(-)-α-[(3-piperdyl-N-carbonyl-imidazolidin-2-on-1-yl)-carbonylamino]-benzylpenicillin] | 64 |  |  |  | 4 | > 256 | 32 | 32 |  | > 256 | 32 | 8 | 128 |  |
